# Data as given in BindingDB's records for doi:10.3109/14756366.2010.491794 (Nanchang University School of Pharmaceutical Science, 2011).
# Molecular target: Cannabinoid receptor 1 (Cricetulus griseus, UniProt Q99NU1)
# Assay: CB1 Receptor Binding Assay (In Vitro)
# Protocol: The target compounds were evaluated using a binding assay towards the CB1 receptor expressed on the membranes of Chinese hamster ovarian (CHO) cells. […] The potent synthetic cannabinoid agonist, [3H]-CP55940, was used as a radioligand (Figure 1). The CHO cells were incubated in 96-well microtiter plates. Various concentrations of the synthesised cannabinoid ligands were added and incubated for 10 min at 37°C. […] The cells were lysed and scintillation fluid was added. […] There were three parallels in the tests.
# Sequence of Cannabinoid receptor 1 (Q99NU1 whole entry): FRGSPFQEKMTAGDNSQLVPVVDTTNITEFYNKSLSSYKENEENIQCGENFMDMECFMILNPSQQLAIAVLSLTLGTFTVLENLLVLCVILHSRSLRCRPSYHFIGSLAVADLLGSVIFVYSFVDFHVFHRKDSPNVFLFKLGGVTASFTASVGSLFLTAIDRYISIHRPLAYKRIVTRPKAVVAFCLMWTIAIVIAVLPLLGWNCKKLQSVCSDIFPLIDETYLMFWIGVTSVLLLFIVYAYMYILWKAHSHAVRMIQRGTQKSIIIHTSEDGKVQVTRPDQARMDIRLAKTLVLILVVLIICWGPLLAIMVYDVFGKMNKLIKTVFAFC
row,SMILES,IC50 [nM]
1,"Cc1c(C(=O)NCCCN2CCCC2)nn(-c2ccc(Cl)cc2Cl)c1-c1ccc(Cl)cc1 [5-(4-Chlorophenyl)-1-(2,4-dichlorophenyl)-4-methyl-N-(3-(pyrrolidin-1-yl)propyl)-1H-pyrazole-3-carboxamide (12e)]",672
2,"Cc1c(C(=O)NCCCCN2CCCCC2)nn(-c2ccc(Cl)cc2Cl)c1-c1ccc(Cl)cc1 [5-(4-Chlorophenyl)-1-(2,4-dichlorophenyl)-4-methyl-N-(4-(piperidin-1-yl)butyl)-1H-pyrazole-3-carboxamide (12f)]",> 1000
3,"Cc1c(C(=O)NN2CCN(C)CC2)nn(-c2ccc(Cl)cc2Cl)c1-c1ccc(Cl)cc1 [5-(4-Chlorophenyl)-1-(2,4-dichlorophenyl)-4-methyl-N-(4-methylpiperazin-1-yl)-1H-pyrazole-3-carboxamide (12a)]",173
4,"COc1ccc2ccc(CCNC(=O)c3nn(-c4ccc(Cl)cc4Cl)c(-c4ccc(Cl)cc4)c3C)cc2c1 [5-(4-Chlorophenyl)-1-(2,4-dichlorophenyl)-4-methyl-N-[2-(7-methoxynaphthalen-2-yl)ethyl]-1H-pyrazol-3-carboxamide (12g)]",398
5,"Cc1c(C(=O)NCCCN2CCOCC2)nn(-c2ccc(Cl)cc2Cl)c1-c1ccc(Cl)cc1 [5-(4-Chlorophenyl)-1-(2,4-dichlorophenyl)-4-methyl-N-[3-(4-morpholinyl)propyl]-1H-pyrazole-3-carboxamide (12b)]",455
6,"CCN(CC)CCCNC(=O)c1nn(-c2ccc(Cl)cc2Cl)c(-c2ccc(Cl)cc2)c1C [5-(4-Chlorophenyl)-1-(2,4-dichlorophenyl)-4-methyl-N-[3-(N,N-diethylamino)propyl]-1H-pyrazol-3-carboxamide (12c)]",> 1000
7,Cc1c(C(=O)NC2CCC(C)CC2)nn(-c2ccccn2)c1-c1ccc(Cl)cc1 (centres undefined) [5-(4-Chlorophenyl)-4-methyl-1-(pyridin-2-yl)-N-(4-methylcyclohexyl)-1H-pyrazole-3-carboxamide (12j)],612
8,Cc1c(C(=O)NN2CCCCCC2)nn(-c2ccccn2)c1-c1ccc(Cl)cc1 [5-(4-Chlorophenyl)-4-methyl-1-(pyridin-2-yl)-N-(azepan-1-yl)-1H-pyrazole-3-carboxamide (12i)],382
9,Cc1c(C(=O)NN2CCCCC2)nn(-c2ccccn2)c1-c1ccc(Cl)cc1 [5-(4-Chlorophenyl)-4-methyl-1-(pyridin-2-yl)-N-(piperidin-1-yl)-1H-pyrazole-3-carboxamide (12h)],510
10,Cc1c(C(=O)NC2CCC(C)CC2)nn(-c2ccc(C(F)(F)F)cc2)c1-c1ccc(Cl)cc1 (centres undefined) [5-(4-Chlorophenyl)-4-methyl-1-[4-(trifluoromethyl)phenyl]-N-(4-methylcyclohexyl)-1H-pyrazole-3-carboxamide (12m)],79
11,Cc1c(C(=O)NN2CCCCCC2)nn(-c2ccc(C(F)(F)F)cc2)c1-c1ccc(Cl)cc1 [5-(4-Chlorophenyl)-4-methyl-1-[4-(trifluoromethyl)phenyl]-N-(azepan-1-yl)-1H-pyrazole-3-carboxamide (12l)],98.3
12,Cc1c(C(=O)NN2CCCCC2)nn(-c2ccc(C(F)(F)F)cc2)c1-c1ccc(Cl)cc1 [5-(4-Chlorophenyl)-4-methyl-1-[4-(trifluoromethyl)phenyl]-N-(piperidin-1-yl)-1H-pyrazole-3-carboxamide (12k)],93.4
13,"Cc1c(C(=O)NC2CCC(C)CC2)nn(-c2ccc(Cl)cc2Cl)c1-c1ccc(Cl)cc1 (centres undefined) [5-(4-chlorophenyl)-1-(2,4-dichlorophenyl)-4-methyl-N-(4-methylcyclohexyl)-1H-pyrazol-3-carboxamide (12d)]",4.31
14,"Cc1c(CN(CC(=O)O)Cc2nn(-c3ccc(Cl)cc3Cl)c(-c3ccc(Cl)cc3)c2C)nn(-c2ccc(Cl)cc2Cl)c1-c1ccc(Cl)cc1 [[2-Bis-[[5-(4-chlorophenyl)-1-(2,4-dichlorophenyl)-4-methyl-1H-pyrazol-3-yl]methyl]amino] acetic acid (13c)]",516
